Source: paper PMC10746543, “Design principles for cyclin K molecular glue degraders” (Nature Chemical Biology, 2023)
Values joined by “and” are separate entries in the source; they are usually repeats but may differ in a detail not shown here. Identical values can stand only once. Like-named read-outs stand apart in the source and are kept apart here.

How the values were obtained:
[1] = target: T1, CDK12–cyclin K and DDB1 (Homo sapiens, UniProt Q16531+Q9NYV4, K965R); assay: TR-FRET ternary complex formation assay (compound titration); type: binding
T1 construct: His6–CDK12 (a.a. 713–1,052); full-length or beta-propeller B domain deletion (ΔBPB: a.a. 396–705 deleted) constructs of His6–DDB1ΔBPB, StrepII–Avi–DDB1, or His6–Spy–DDB1; made in house; host or cells: Trichoplusia ni High Five insect cells (baculovirus)
Procedure, shortened: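 Read-out used a 70 μs delay to cut background fluorescence; TR-FRET signal taken as the 520 nm/490 nm emission ratio.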

[2] = target: CDK12–cyclin K (Homo sapiens, UniProt Q9NYV4); assay: Lanthascreen kinase binding assay, CDK12; conditions: for Lanthascreen raw signal, sheet CDK12: duplicates
Description: Lanthascreen experiments were performed using commercially available reagents (Thermo Fisher) and according to the manufacturer’s instructions.

CDK12–cyclin K, sequence (Q9NYV4 713-1052): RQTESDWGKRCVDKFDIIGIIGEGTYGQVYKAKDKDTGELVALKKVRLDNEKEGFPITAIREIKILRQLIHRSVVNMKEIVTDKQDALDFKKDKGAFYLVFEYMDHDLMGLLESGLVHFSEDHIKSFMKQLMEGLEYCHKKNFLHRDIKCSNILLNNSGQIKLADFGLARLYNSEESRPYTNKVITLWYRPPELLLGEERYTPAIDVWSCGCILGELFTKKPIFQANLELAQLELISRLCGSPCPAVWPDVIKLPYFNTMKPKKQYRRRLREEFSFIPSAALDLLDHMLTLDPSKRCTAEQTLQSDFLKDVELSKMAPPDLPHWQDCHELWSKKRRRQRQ
CDK12–cyclin K, sequence (O75909 1-267 partner limits assumed): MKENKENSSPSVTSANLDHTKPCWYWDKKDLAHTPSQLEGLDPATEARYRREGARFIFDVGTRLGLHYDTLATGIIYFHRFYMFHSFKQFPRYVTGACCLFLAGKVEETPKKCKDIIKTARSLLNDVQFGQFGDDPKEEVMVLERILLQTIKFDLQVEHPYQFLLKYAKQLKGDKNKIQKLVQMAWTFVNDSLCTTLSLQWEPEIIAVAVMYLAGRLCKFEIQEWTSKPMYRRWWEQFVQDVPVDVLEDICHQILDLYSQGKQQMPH
T1 sequence (Q9NYV4 713-1052 K965R): as the sequence (Q9NYV4 713-1052) above, with K253R counted along it
T1 sequence (O75909 1-267 partner): as the sequence (O75909 1-267 partner limits assumed) above
T1 sequence (Q16531 whole entry): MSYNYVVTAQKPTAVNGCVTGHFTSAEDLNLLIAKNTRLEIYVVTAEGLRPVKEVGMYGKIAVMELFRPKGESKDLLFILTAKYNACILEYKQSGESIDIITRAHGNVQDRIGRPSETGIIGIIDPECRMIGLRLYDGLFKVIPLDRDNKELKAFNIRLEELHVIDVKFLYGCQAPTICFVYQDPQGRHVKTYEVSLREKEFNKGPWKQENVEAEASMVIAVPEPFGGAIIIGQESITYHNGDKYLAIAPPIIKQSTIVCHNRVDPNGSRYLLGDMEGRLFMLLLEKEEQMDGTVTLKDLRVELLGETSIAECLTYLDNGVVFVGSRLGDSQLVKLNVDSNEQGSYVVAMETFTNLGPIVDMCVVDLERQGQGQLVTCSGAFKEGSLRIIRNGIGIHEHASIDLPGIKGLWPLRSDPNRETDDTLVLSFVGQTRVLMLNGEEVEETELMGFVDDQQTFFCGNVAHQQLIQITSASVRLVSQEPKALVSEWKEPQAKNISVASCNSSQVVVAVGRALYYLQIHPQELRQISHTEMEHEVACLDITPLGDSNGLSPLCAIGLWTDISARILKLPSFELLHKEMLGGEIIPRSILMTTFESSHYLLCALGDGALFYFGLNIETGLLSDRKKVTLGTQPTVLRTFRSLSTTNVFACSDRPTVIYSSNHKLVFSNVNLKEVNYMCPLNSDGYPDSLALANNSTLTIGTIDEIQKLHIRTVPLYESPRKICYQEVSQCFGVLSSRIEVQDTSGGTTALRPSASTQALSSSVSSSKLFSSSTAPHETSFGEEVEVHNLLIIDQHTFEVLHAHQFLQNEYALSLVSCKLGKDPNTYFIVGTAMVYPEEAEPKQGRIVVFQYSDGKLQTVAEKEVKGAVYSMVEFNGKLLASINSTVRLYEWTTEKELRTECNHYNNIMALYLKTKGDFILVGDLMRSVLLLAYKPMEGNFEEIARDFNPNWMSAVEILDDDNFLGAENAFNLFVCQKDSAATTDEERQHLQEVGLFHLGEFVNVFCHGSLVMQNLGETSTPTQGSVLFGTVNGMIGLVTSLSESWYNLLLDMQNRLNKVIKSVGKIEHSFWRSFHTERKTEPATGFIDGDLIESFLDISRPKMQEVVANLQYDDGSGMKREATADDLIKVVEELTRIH

## Cc1ccc(C(=O)N2CSCC2C(=O)Nc2ncc(C)s2)o1 (stereo not shown) [dCeMM4]
[1]; compound concentration 0.468 nM
  TR-FRET signal: 0.3047 and 0.3012
[1]; compound concentration 2.16 nM
  TR-FRET signal: 0.3265 and 0.3171
[1]; compound concentration 3.6 nM
  TR-FRET signal: 0.3554 and 0.3435
[1]; compound concentration 4.68 nM
  TR-FRET signal: 0.2015 and 0.1931
[1]; compound concentration 7.92001 nM
  TR-FRET signal: 0.4106 and 0.4108
[1]; compound concentration 15.84 nM
  TR-FRET signal: 0.4953 and 0.4972
[1]; compound concentration 21.6 nM
  TR-FRET signal: 0.3497 and 0.3693
[1]; compound concentration 30.96 nM
  TR-FRET signal: 0.6975 and 0.7097
[1]; compound concentration 36 nM
  TR-FRET signal: 0.6301 and 0.6713
[1]; compound concentration 62.6401 nM
  TR-FRET signal: 1.033 and 1.024
[1]; compound concentration 79.2001 nM
  TR-FRET signal: 1.054 and 1.091
[1]; compound concentration 125.28 nM
  TR-FRET signal: 1.438 and 1.46
[1]; compound concentration 158.4 nM
  TR-FRET signal: 1.569 and 1.639
[1]; compound concentration 244.8 nM
  TR-FRET signal: 2.039 and 2.019
[1]; compound concentration 309.6 nM
  TR-FRET signal: 2.287 and 2.2
[1]; compound concentration 626.401 nM
  TR-FRET signal: 2.739 and 2.6898
[1]; compound concentration 993.601 nM
  TR-FRET signal: 3.062 and 3.005
[1]; compound concentration 1252.8 nM
  TR-FRET signal: 3.187 and 3.255
[1]; compound concentration 2001.6 nM
  TR-FRET signal: 3.478 and 3.348
[1]; compound concentration 2448 nM
  TR-FRET signal: 3.234 and 3.447
[1]; compound concentration 9936.01 nM
  TR-FRET signal: 3.901 and 3.875
[1]; compound concentration 20016 nM
  TR-FRET signal: 3.981 and 3.769
[1]; in vitro complex formation, 50 nM CDK12–cyclin K, 100 nM DDB1, text and figures, read-out: TR-FRET EC50
  EC50: 279 ± 12 nM
[1]; sheet MOESM7, read-out: log TR-FRET EC50 (converted)
  EC50: 279 nM
[1]; source data sheet correlations, read-out: TR-FRET EC50
  EC50: 279 nM
[2]; Supplementary Table 2, read-out: Lanthascreen IC50 [nM] CDK12
  IC50: 6550 nM
[2]; compound 0.038147 nM, series r13
  Lanthascreen raw signal, sheet CDK12: 0.01232 and 0.01243
[2]; compound 0.038147 nM, series r49
  Lanthascreen raw signal, sheet CDK12: 0.008613 and 0.007971
[2]; compound 0.152588 nM, series r13
  Lanthascreen raw signal, sheet CDK12: 0.01076 and 0.01116
[2]; compound 0.152588 nM, series r49
  Lanthascreen raw signal, sheet CDK12: 0.01012 and 0.009882
[2]; compound 0.610352 nM, series r13
  Lanthascreen raw signal, sheet CDK12: 0.0114 and 0.01052
[2]; compound 0.610352 nM, series r49
  Lanthascreen raw signal, sheet CDK12: 0.009497 and 0.01011
[2]; compound 1.02544 nM, series r1
  Lanthascreen raw signal, sheet CDK12: 0.009042 and 0.01099
[2]; compound 3.15521 nM, series r1
  Lanthascreen raw signal, sheet CDK12: 0.01068 and 0.009679
[2]; compound 9.46563 nM, series r1
  Lanthascreen raw signal, sheet CDK12: 0.009286 and 0.009664
[2]; compound 9.76563 nM, series r13
  Lanthascreen raw signal, sheet CDK12: 0.01092 and 0.01022
[2]; compound 9.76563 nM, series r49
  Lanthascreen raw signal, sheet CDK12: 0.01048 and 0.01041
[2]; compound 31.5521 nM, series r1
  Lanthascreen raw signal, sheet CDK12: 0.009025 and 0.009021
[2]; compound 39.0625 nM, series r13
  Lanthascreen raw signal, sheet CDK12: 0.01118 and 0.01016
[2]; compound 39.0625 nM, series r49
  Lanthascreen raw signal, sheet CDK12: 0.009518 and 0.009698
[2]; compound 99.3891 nM, series r1
  Lanthascreen raw signal, sheet CDK12: 0.008619 and 0.008828
[2]; compound 156.25 nM, series r13
  Lanthascreen raw signal, sheet CDK12: 0.01038 and 0.009956
[2]; compound 156.25 nM, series r49
  Lanthascreen raw signal, sheet CDK12: 0.009802 and 0.01107
[2]; compound 315.521 nM, series r1
  Lanthascreen raw signal, sheet CDK12: 0.009446 and 0.008194
[2]; compound 625 nM, series r13
  Lanthascreen raw signal, sheet CDK12: 0.01123 and 0.01103
[2]; compound 625 nM, series r49
  Lanthascreen raw signal, sheet CDK12: 0.008992 and 0.00907
[2]; compound 2500 nM, series r13
  Lanthascreen raw signal, sheet CDK12: 0.01034 and 0.009721
[2]; compound 2500 nM, series r49
  Lanthascreen raw signal, sheet CDK12: 0.009117 and 0.008384
[2]; compound 3155.21 nM, series r1
  Lanthascreen raw signal, sheet CDK12: 0.008559 and 0.007567
[2]; compound 10000 nM, series r13
  Lanthascreen raw signal, sheet CDK12: 0.008264
[2]; compound 10000 nM, series r49
  Lanthascreen raw signal, sheet CDK12: 0.007507 and 0.007835
[2]; compound 10002 nM, series r1
  Lanthascreen raw signal, sheet CDK12: 0.008529 and 0.007315
